Experimental data: patent US20100280023A1, “THIAZOLE DERIVATIVES” (KYOWA HAKKO KOGYO CO., LTD., priority 2005, published 2010)

Key:
[1] = system: CGS21680-induced catalepsy; experiment: Effect on CGS21680-induced catalepsy; assay type: in vivo, male ddY mice; details: mice; 10 mg/kg orally 30 minutes before i.c.v. CGS21680 10 μg/20 μL; scored 1 hour after administration; 80% or more judged active
Experimental: Parkinson's disease is motor dysfunction based on the degeneration and cell death of the nigrostriatal dopaminergic neuron. […] Therefore, it is considered that the adenosine A2A receptor functions to promote the output of GABAergic neurons from the corpus striatum into the external segment of globus pallidus, and as a result, catalepsy is induced by the administration of CGS21680.
The experiment was carried out using 10 male ddY mice of 5 weeks of age (body weight, 22 to 25 g, by Nippon SLC) per group. CGS21680 (by Kyowa Hakko Kogyo) was dissolved in physiological saline (by Otsuka Pharmaceutical), and intracerebroventricularly injected to the mice in an amount of 10 μg/20 μL. The test compound was used by being suspended in distilled water containing 0.5 w/v % methyl cellulose 400 cP (hereinafter abbreviated as MC) (by Otsuka Pharmaceutical). […] At 1 hour after the administration of the test compound, the degree of catalepsy was measured with respect to each of the mice such that a pair of only forelimbs and a pair of only hindlimbs of each mouse were placed by turns on a vertically installed acrylic stand with a height of 4.5 cm and a width of 1.0 cm. […]
The catalepsy remission rate was calculated according to the following equation. […]

[2] = target: T1, Rat adenosine A2A receptor (Rattus norvegicus, UniProt P30543); experiment: Adenosine A2A receptor binding test (3H-CGS21680 binding, rat corpus striatum membranes); details: test compound 10^−7 mol/L, 25° C., 120 minutes, read-out: Rat adenosine A2A receptor binding inhibition rate (%) (10^−7 mol/L)
T1 construct: tissue Nippon SLC (animals); host or cells: rat (SD) corpus striatum membrane preparation
Experimental: This test was carried out in a similar manner to a Bruns et al's method (Molecular Pharmacology, Vol. 29, p. 331, 1986).
Corpus striatum of a rat (SD rat, by Nippon SLC) was suspended in 50 mL of an ice-cooled 50 mmol/L tris(hydroxymethyl)aminomethane hydrochloride (Tris-HCl) buffer (pH 7.7) using a polytron homogenizer (by Kinematica). The resulting suspension was centrifuged (48,000×g, 20 minutes), and the resulting precipitate was resuspended by adding the same amount of a 50 mmol/L Tris-HCl buffer, followed by centrifugation under the same condition. The resulting final precipitate was suspended by adding a 50 mmol/L Tris-HCl buffer [containing 10 mmol/L magnesium chloride, adenosine deaminase 0.02 units/mg tissue (by Sigma)] thereto so that the tissue concentration was 5 mg (wet weight)/mL.
To 100 μl, of the above purified cell suspension, 80 μL (final concentration: […]) of tritium-labeled CGS-21680 {^3H-2-[p-(2-carboxyethyl)phenethylamino]-5′-(N-ethylcarboxamido)-adenosine: 40 curies/mmol: by New England Nuclear [The Journal of Pharmacology and Experimental Therapeutics, Vol. 251, p. 888, 1989]) and 20 μL of a test compound solution (10^−7 mol/L; a solution of a test compound in DMSO was diluted with a Tris-HCl buffer) were added. The resulting mixture was allowed to stand at 25° C. for 120 minutes, followed by rapid suction filtration through a glass fiber paper filter (GF/C; by Whatman). The filter was immediately washed three times with 200 μL of an ice-cooled 50 mmol/L Tris-HCl buffer. The glass fiber paper filter was transferred into a vial, Microscinti (by Perkin Elmer) was added thereto, and the radioactivity level was measured with Topcount (by Perkin Elmer).
The inhibition rate of the test compound to the adenosine A2A receptor binding (3H-CGS21680 binding) was calculated according to the following equation.
Inhibition rate (%)={1−[(Amount of binding in the presence of compound)−(Amount of non-specific binding)]/[(Amount of total binding)−(Amount of non-specific binding)]}×100
Amount of total binding means the ^3H-CGS21680 binding radioactivity content in the absence of the test compound. Amount of non-specific binding means the ^3H-CGS21680 binding radioactivity content in the presence of 100 μmol/L cyclopentyladenosine (CPA; by Sigma). Amount of binding in the presence of compound means the ^3H-CGS21680 binding radioactivity content in the presence of 10^−7 mol/L, of the test compound.

T1 sequence (P30543 whole entry): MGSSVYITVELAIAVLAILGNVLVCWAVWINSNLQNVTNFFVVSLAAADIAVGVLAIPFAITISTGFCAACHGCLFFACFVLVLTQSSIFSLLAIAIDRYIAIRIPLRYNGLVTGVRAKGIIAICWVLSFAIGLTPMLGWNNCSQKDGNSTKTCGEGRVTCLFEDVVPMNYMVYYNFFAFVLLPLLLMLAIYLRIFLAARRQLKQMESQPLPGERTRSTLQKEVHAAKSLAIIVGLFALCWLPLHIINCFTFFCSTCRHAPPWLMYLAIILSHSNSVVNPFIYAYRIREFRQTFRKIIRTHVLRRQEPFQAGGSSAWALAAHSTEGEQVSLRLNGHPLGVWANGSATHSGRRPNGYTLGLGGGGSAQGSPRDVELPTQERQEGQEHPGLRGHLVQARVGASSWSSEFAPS

Q: For O=C(c1sc(-c2nc3ncccc3[nH]2)nc1-c1ccco1)C1CCOCC1 [Compound 17, 4-(2-Furyl)-2-(imidazo[4,5-b]pyridin-2-yl)thiazol-5-yl tetrahydropyran-4-yl ketone], which catalepsy remission rate [1] is on record?
A: The catalepsy remission rate was 100%.

Q: For O=C(c1sc(-c2nc3cnccc3[nH]2)nc1-c1ccco1)C1CCOCC1 [Compound 18, 4-(2-Furyl)-2-(imidazo[4,5-c]pyridin-2-yl)thiazol-5-yl tetrahydropyran-4-yl ketone], which inhibition at 0.1 µM [2] is on record?
A: The inhibition at 0.1 µM was 81%.

Q: Which melting point does the source give for COc1ccc(-c2c[nH]c(-c3nc(-c4ccco4)c(C(=O)C4CCOCC4)s3)n2)cc1 [Compound 19, 4-(2-Furyl)-2-[4-(4-methoxyphenyl)imidazol-2-yl]thiazol-5-yl tetrahydropyran-4-yl ketone] here?
A: The melting point was 178 to 180 °C.

Q: What about the inhibition at 0.1 µM [2] of the same compound?
A: The inhibition at 0.1 µM was 63%.

Q: Which inhibition at 0.1 µM [2] does the source give for O=C(c1ccccn1)c1sc(-c2nc3ccccc3[nH]2)nc1-c1ccco1 [Compound 24, 4-(2-Furyl)-5-(pyridin-2 ylcarbonyl)-2-(2-benzimidazolyl)thiazole] here?
A: Its inhibition at 0.1 µM is 94%.

Q: With O=C(c1ccccn1)c1sc(-c2nc3c([nH]2)CSCC3)nc1-c1ccco1 [Compound 29, 4-(2-Furyl)-5-(pyridin-2-ylcarbonyl)-2-(3,4,6,7-tetrahydrothiopyrano[3,4-d]imidazol-2-yl)thiazole] as the compound, how does the inhibition at 0.1 µM [2] read?
A: Its inhibition at 0.1 µM is 90%.

Q: Which inhibition at 0.1 µM [2] does the source give for O=C(Nc1ccccc1)c1nc(-c2ccco2)c(C(=O)C2CCOCC2)s1 [Compound 32, 4-(2 Furyl)-5-(tetrahydropyran-4-ylcarbonyl)thiazol-2-carboxylic acid phenylamide] here?
A: Its inhibition at 0.1 µM is 26%.

Q: With CC(C)CNC(=O)c1nc(-c2ccco2)c(C(=O)C2CCOCC2)s1 [Compound 33, 4-(2-Furyl)-5-(tetrahydropyran-4-ylcarbonyl)thiazol-2-carboxylic acid isobutylamide] as the compound, how does the inhibition at 0.1 µM [2] read?
A: The inhibition at 0.1 µM was 50%.
